# In the supplement of paper PMC6045584:
# ± gives the standard deviation of the averaged measurements.
# Columns and labels:
# MLN-4924 = compound: NS(=O)(=O)OC[C@@H]1C[C@@H](n2ccc3c(N[C@H]4CCc5ccccc54)ncnc32)C[C@@H]1O [MLN-4924]; assay: surviving fraction relative to DMSO-only wells; higher = less growth inhibition; details: exposure time: 5 days
# Method in brief: (§1)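 Viability was determined by CellTiter-Glo luminescence, expressed as surviving fraction normalised to the median of DMSO-only wells. The cells were log-phase tumour cell lines seeded at 250–500 per well in 384-well plates and, after 24 hours, exposed continuously for five days to inhibitors at 0.5, 1, 5, 10, 50, 100, 500 and 1000 nM. Three screens per line were run, keeping only lines with replicate Pearson r >0.7 and median Z' >0.3.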
# FORETINIB = compound: COc1cc2c(Oc3ccc(NC(=O)C4(C(=O)Nc5ccc(F)cc5)CC4)cc3F)ccnc2cc1OCCCN1CCOCC1 [FORETINIB]; assay: as above; details: exposure time: 5 days
# Method in brief: as §1
Test System,surviving fraction (MLN-4924; 0.5 nM),surviving fraction (MLN-4924; 1 nM),surviving fraction (MLN-4924; 5 nM),surviving fraction (MLN-4924; 10 nM),surviving fraction (MLN-4924; 50 nM),surviving fraction (MLN-4924; 100 nM),surviving fraction (MLN-4924; 500 nM),surviving fraction (MLN-4924; 1000 nM),surviving fraction (FORETINIB; 0.5 nM),surviving fraction (FORETINIB; 1 nM),surviving fraction (FORETINIB; 5 nM),surviving fraction (FORETINIB; 10 nM),surviving fraction (FORETINIB; 50 nM),surviving fraction (FORETINIB; 100 nM),surviving fraction (FORETINIB; 500 nM),surviving fraction (FORETINIB; 1000 nM)
HELA CERVIX,1.12 ± 0.038,1.07 ± 0.06,1.1 ± 0.052,1 ± 0.022,1.16 ± 0.086,1.17 ± 0.1,0.718 ± 0.055,0.611 ± 0.027,1.09 ± 0.037,1.05 ± 0.091,1.1 ± 0.039,1.05 ± 0.052,1.14 ± 0.11,1.15 ± 0.042,0.659 ± 0.073,0.07233 ± 0.00058
HOS BONE,1.04 ± 0.026,1.02 ± 0.014,1.01 ± 0.042,0.949 ± 0.027,0.574 ± 0.033,0.337 ± 0.013,0.0287 ± 0.0011,0.0287 ± 0.0021,1.014 ± 0.0075,1.01 ± 0.012,1.057 ± 0.0045,1.01 ± 0.022,1.02 ± 0.075,1.02 ± 0.036,0.55 ± 0.024,0.451 ± 0.013
HOSMNG BONE,0.883 ± 0.092,0.897 ± 0.032,0.951 ± 0.024,0.917 ± 0.05,1.04 ± 0.14,1.08 ± 0.053,0.503 ± 0.18,0.097 ± 0.016,0.915 ± 0.11,0.904 ± 0.074,0.895 ± 0.066,0.855 ± 0.036,0.55 ± 0.039,0.381 ± 0.014,0.128 ± 0.0089,0.065 ± 0.0044
HSSYII SYNOVIAL,1.01 ± 0.14,1 ± 0.078,0.965 ± 0.033,0.992 ± 0.071,0.286 ± 0.012,0.166 ± 0.008,0.0248 ± 0.001,0.0283 ± 0.002,0.972 ± 0.039,0.941 ± 0.031,0.956 ± 0.038,0.92 ± 0.039,0.85 ± 0.028,0.771 ± 0.028,0.208 ± 0.021,0.0695 ± 0.0013
HT1080 SOFT TISSUE,1.074 ± 0.0072,1.05 ± 0.047,1.112 ± 0.0055,1.14 ± 0.045,0.9977 ± 0.0078,0.705 ± 0.042,0.223 ± 0.022,0.11 ± 0.0061,1.01 ± 0.026,1.06 ± 0.037,1 ± 0.017,1.01 ± 0.033,1.04 ± 0.048,0.996 ± 0.017,0.779 ± 0.025,0.3927 ± 0.0032
HU09 BONE,0.948 ± 0.097,0.931 ± 0.076,1.04 ± 0.03,1.15 ± 0.048,1.01 ± 0.096,0.707 ± 0.052,0.296 ± 0.0049,0.26 ± 0.018,0.923 ± 0.11,1.01 ± 0.063,1 ± 0.08,0.958 ± 0.082,0.625 ± 0.1,0.496 ± 0.087,0.201 ± 0.016,0.0877 ± 0.0029
HUO3N1 BONE,0.9977 ± 0.0055,0.994 ± 0.022,1.02 ± 0.017,1.05 ± 0.036,1.17 ± 0.041,1.19 ± 0.034,0.663 ± 0.031,0.528 ± 0.014,1 ± 0.035,0.992 ± 0.079,1.06 ± 0.059,1.01 ± 0.039,0.903 ± 0.04,0.819 ± 0.006,0.619 ± 0.02,0.412 ± 0.025
JIMT1 BREAST,1.06 ± 0.04,1.016 ± 0.0069,1.06 ± 0.019,1.06 ± 0.017,1.09 ± 0.056,1.06 ± 0.062,0.764 ± 0.046,0.539 ± 0.073,0.991 ± 0.015,0.978 ± 0.032,1.03 ± 0.058,1.03 ± 0.031,1 ± 0.041,1.01 ± 0.11,0.62 ± 0.033,0.484 ± 0.087
